Columns and labels:
NSC34 cells = assay: Screening of neurite length in NSC34 cells; assay type: cell-based, mouse; conditions: dose dependency, FIG. 1
Procedure: The cells were seeded in DMEM/F12 differentiation medium (Invitrogen) supplemented with 1% FBS and […] doxycycline in a 96-well plate at 1.6×10^3 cells/cm^2 to induce the expression of GFP. […] Subsequently, cell nuclei were stained with Hoechst 33342 (1:100,000, Sigma Aldrich). Sixteen images per well were acquired on ArrayScan VTI HCS Reader (Thermo Scientific Cellomics). The average of neurite length in each well was automatically determined using Neuronal Profiling v4.0 BioApplication (Thermo Scientific Cellomics).

[1] = test system: Bdnf, Ngf, Ntf4, Ntrk1, Ntrk2, Map2, Mapt, Gap43; assay: Mouse sciatic nerve autologous transplantation model: mRNA in sciatic nerve segment; assay type: in vivo; conditions: sciatic nerve segment distal to the distal transection site, 8 weeks after surgery
Excerpt: Adult male C57BL/6J mice (8 weeks old; 19.5-22.0 g) were purchased from Charles River. The mice were anesthetized with isoflurane and underwent gluteal muscle incision under a sterile condition to expose the sciatic nerve in the left leg. The sciatic nerve was cut at the following two sites (1) and (2): (1) the site 3 mm distal to the first bifurcation of biceps femoris (hereinafter referred to as proximal transection site) (2) the site 3 mm distal to the proximal transection site (hereinafter referred to as distal transection site) The excised nerve segment with a length of 3 mm was confirmed to be completely cut at the two sites. The perineurium was sutured with nylon thread (10-0 black) at the proximal transection site and the distal transection site under a microscope. The remaining thread was used as a marker for finding the nerve transection site in the sacrifice of the mice. In order to reduce DMSO toxicity, a solution of 60 mg/mL zonisamide in 100% DMSO was prepared and the solution was diluted in olive oil to give a solution of 3 mg/mL zonisamide in 5% DMSO. The control solution (5% DMSO) or zonisamide (3 mg/mL×about 0.2 mL) at 30 mg/kg/day was administered to the stomach using a disposable probe needle (flexible type, Fuchigami) once a day for 1 to 8 weeks from the end of surgery until sacrifice. Myelin sheath formation in the sciatic nerve was analyzed in six mice in each group. One week after the sciatic nerve autologous transplantation, the sciatic nerve was transected at “the proximal transection site” and “the site 3 mm distal to the distal transection site” to excise a nerve segment with a length of 6 mm. Subsequently, the nerve segment was fixed in 2% paraformaldehyde/2.5% glutaraldehyde in 0.2 mol/L sodium cacodylate buffer pH 7.3 overnight, treated with 2% osmium tetroxide for 3 hours, and dehydrated in ethanol. After epon embedding, a semithin section (with a thickness of 1 μm) was cut at the position 0.7 mm distal to the distal transection site, stained with alkaline Toluidine blue (Sigma), and examined under a microscope (FSX100, Olympus). The number and area of myelinated axons in the sciatic nerve were manually measured using ImageJ software in a blinded fashion. Eight weeks after sciatic nerve autologous transplantation, the entire gastrocnemius muscle and a sciatic nerve segment between the distal transection site and the site 3 mm distal to the distal transection site were isolated for total RNA extraction. Similar sciatic nerve segment was also isolated from the hindlimb without transected sciatic nerve. The mRNA expression levels of Bdnf, Ngf, Ntf4, Ntrk1, Ntrk2, Map2, Mapt, Gap43, Chrne, Colq, and Rapsn were quantified in a manner similar to Example 5.

[2] = test system: severely crushed spinal cord model mice; assay: Severely crushed spinal cord model mice: rotarod test; assay type: in vivo, mouse
Excerpt: Female C57BL/6J mice (8 weeks old; 19.5-22.0 g) were purchased from Charles River. The female C57BL/6J mice were anesthetized by intraperitoneally administering pentobarbital sodium and underwent back incision under a sterile condition to perform laminectomy at the 10th thoracic vertebra. The spinal cord was crushed at 100 kdyn using a tip with a diameter of 1.35 mm on IH Spinal Cord Impactor. After the occurrence of hematoma in the spinal cord was confirmed under a microscope, the wound was closed and 1 ml of physiological saline was subcutaneously injected into the posterior neck region to prevent dehydration. The mice with spinal cord injury were separated into two groups in a blinded fashion. […] One day after surgery, motor function of mice in both groups was assessed using BMS score (Basso mouse scale; Li et. al. J Neurosurg Spine 4: 165-173 (2006)) in a blinded fashion to select the mice with BMS score of 1 or lower and consider them as severely crushed spinal cord model mice. […] The latency until a mouse fell off the rotarod (holding time, in seconds; a maximum latency of 300 seconds) was measured in the accelerating rotation mode with an initial speed of 2 rpm, an accelerated speed of 5 rpm/min, and a maximum speed of 40 rpm. The latency was measured 3 times at an interval of 10 minutes and the three measurements were averaged for assessment (FIG. 15).

With `NS(=O)(=O)Cc1noc2ccccc12` [Zonisamide, 3-sulfamoylmethyl-1,2-benzisoxazole] the “axonal growth (average neurite length) in NSC34 cells” value (NSC34 cells) was “dose-dependent axonal growth”, the “expression level of Bdnf” value [1] was “unchanged” and the “gene expression level of Ngf” value [1] was “increased”. For the same compound, the “gene expression level of Ntf4” value [1] was “increased”, the “mRNA level of Gap43” value [1] was “elevated” and the “mRNA level of Map2” value [1] was “elevated”. The “mRNA level of Mapt” value [1] was “elevated”, the “mRNA level of Ntrk1” value [1] was “increased” and the “mRNA level of Ntrk2” value [1] was “increased”. For the same compound, the “holding time on rotarod” value ([2]; day 28 after surgery, 30 mg/kg/day intragastrically) was 135.3 ± 16.4 s and the “holding time on rotarod compared to the control group” value ([2]; days 21 and 28 after surgery) was “longer”.

— patent US20210106566A1, “PHARMACEUTICAL COMPOSITION FOR TREATING AND/OR PREVENTING PERIPHERAL NEUROPATHY OR SPINAL CORD INJURY” (NATIONAL UNIVERSITY CORPORATION NAGOYA UNIVERSITY, priority 2015, published 2021)
